Assay results published in PubChem BioAssay AID1745844 (Carcinogenic Potency Database (CPDB), 2022).

Tested on: rodent lifetime carcinogenesis bioassay, tumor incidence TD50
Experiment: chronic cancer bioassays in animals – CPDB, compiled studies (AID 1745844)
Conditions: in feed

Question: For `Nc1c(Br)cc(Br)c2c1C(=O)c1ccccc1C2=O`, which TD50 (mouse, strain B6C3F1, females, site: any site (literature study), lesion: several types, types named in the paper, dosed 104 weeks, study length 104 weeks) is on record?
Answer: 1030 mg/kg/day

Question: And the TD50 (mouse, strain B6C3F1, females, site: forestomach + liver + lung, lesion: squamous-cell carcinoma + squamous-cell papilloma + hepatocellular adenoma + hepatocellular carcinoma + alveolar/bronchiolar ade, dosed 104 weeks, study length 104 weeks)?
Answer: 546 mg/kg/day

Question: And the TD50 (mouse, strain B6C3F1, females, site: forestomach, lesion: squamous-cell carcinoma + squamous-cell papilloma, dosed 104 weeks, study length 104 weeks)?
Answer: 1230 mg/kg/day

Question: What about the TD50 (mouse, strain B6C3F1, females, site: forestomach, lesion: squamous-cell carcinoma, dosed 104 weeks, study length 104 weeks) of the same compound?
Answer: 3930 mg/kg/day

Question: What about the TD50 (mouse, strain B6C3F1, females, site: forestomach, lesion: squamous-cell papilloma, dosed 104 weeks, study length 104 weeks) of the same compound?
Answer: 1760 mg/kg/day

Question: And the TD50 (mouse, strain B6C3F1, females, site: liver, lesion: hepatocellular adenoma + hepatoblastoma + hepatocellular carcinoma, dosed 104 weeks, study length 104 weeks)?
Answer: 490 mg/kg/day

Question: What about the TD50 (mouse, strain B6C3F1, females, site: liver, lesion: hepatocellular adenoma + hepatocellular carcinoma, dosed 104 weeks, study length 104 weeks) of the same compound?
Answer: 490 mg/kg/day

Question: And the TD50 (mouse, strain B6C3F1, females, site: liver, lesion: hepatocellular adenoma, dosed 104 weeks, study length 104 weeks)?
Answer: 515 mg/kg/day

Question: And the TD50 (mouse, strain B6C3F1, females, site: liver, lesion: hepatocellular carcinoma, dosed 104 weeks, study length 104 weeks)?
Answer: 1530 mg/kg/day

Question: What about the TD50 (mouse, strain B6C3F1, females, site: lung, lesion: alveolar/bronchiolar adenoma + alveolar/bronchiolar carcinoma, dosed 104 weeks, study length 104 weeks) of the same compound?
Answer: 1990 mg/kg/day

Question: What about the TD50 (mouse, strain B6C3F1, females, site: lung, lesion: alveolar/bronchiolar adenoma, dosed 104 weeks, study length 104 weeks) of the same compound?
Answer: 1990 mg/kg/day

Question: And the TD50 (mouse, strain B6C3F1, females, site: pituitary gland, lesion: pars distalis adenoma, dosed 104 weeks, study length 104 weeks)?
Answer: 3750 mg/kg/day

Question: And the TD50 (mouse, strain B6C3F1, females, site: uterus, lesion: endometrial stromal polyp + endometrial stromal sarcoma, dosed 104 weeks, study length 104 weeks)?
Answer: 6820 mg/kg/day

Question: And the TD50 (mouse, strain B6C3F1, males, site: any site (literature study), lesion: several types, types named in the paper, dosed 103 weeks, study length 104 weeks)?
Answer: 566 mg/kg/day

Question: What about the TD50 (mouse, strain B6C3F1, males, site: forestomach + liver + lung, lesion: squamous-cell carcinoma + squamous-cell papilloma + hepatocellular adenoma + hepatoblastoma + hepatocellular carcinoma + alveolar/, dosed 103 weeks, study length 104 weeks) of the same compound?
Answer: 465 mg/kg/day

Question: And the TD50 (mouse, strain B6C3F1, males, site: forestomach, lesion: squamous-cell carcinoma + squamous-cell papilloma, dosed 103 weeks, study length 104 weeks)?
Answer: 1130 mg/kg/day

Question: What about the TD50 (mouse, strain B6C3F1, males, site: forestomach, lesion: squamous-cell carcinoma, dosed 103 weeks, study length 104 weeks) of the same compound?
Answer: 2730 mg/kg/day

Question: And the TD50 (mouse, strain B6C3F1, males, site: forestomach, lesion: squamous-cell papilloma, dosed 103 weeks, study length 104 weeks)?
Answer: 1680 mg/kg/day

Question: What about the TD50 (mouse, strain B6C3F1, males, site: liver, lesion: hepatoblastoma + hepatocellular carcinoma, dosed 103 weeks, study length 104 weeks) of the same compound?
Answer: 1870 mg/kg/day

Question: And the TD50 (mouse, strain B6C3F1, males, site: liver, lesion: hepatoblastoma, dosed 103 weeks, study length 104 weeks)?
Answer: 9250 mg/kg/day

Question: What about the TD50 (mouse, strain B6C3F1, males, site: liver, lesion: hepatocellular adenoma + hepatoblastoma + hepatocellular carcinoma, dosed 103 weeks, study length 104 weeks) of the same compound?
Answer: 467 mg/kg/day

Question: And the TD50 (mouse, strain B6C3F1, males, site: liver, lesion: hepatocellular adenoma + hepatocellular carcinoma, dosed 103 weeks, study length 104 weeks)?
Answer: 467 mg/kg/day

Question: What about the TD50 (mouse, strain B6C3F1, males, site: liver, lesion: hepatocellular adenoma, dosed 103 weeks, study length 104 weeks) of the same compound?
Answer: 464 mg/kg/day

Question: And the TD50 (mouse, strain B6C3F1, males, site: liver, lesion: hepatocellular carcinoma, dosed 103 weeks, study length 104 weeks)?
Answer: 2240 mg/kg/day

Question: And the TD50 (mouse, strain B6C3F1, males, site: lung, lesion: alveolar/bronchiolar adenoma + alveolar/bronchiolar carcinoma, dosed 103 weeks, study length 104 weeks)?
Answer: 817 mg/kg/day

Question: What about the TD50 (mouse, strain B6C3F1, males, site: lung, lesion: alveolar/bronchiolar adenoma, dosed 103 weeks, study length 104 weeks) of the same compound?
Answer: 831 mg/kg/day

Question: What about the TD50 (rat, strain Fischer 344, females, site: any site (literature study), lesion: several types, types named in the paper, dosed 40 weeks, study length 66 weeks) of the same compound?
Answer: 135 mg/kg/day

Question: What about the TD50 (rat, strain Fischer 344, females, site: any site (literature study), lesion: several types, types named in the paper, dosed 66 weeks, study length 66 weeks) of the same compound?
Answer: 147 mg/kg/day

Question: And the TD50 (rat, strain Fischer 344, females, site: any site (literature study), lesion: several types, types named in the paper, dosed 103 weeks, study length 104 weeks)?
Answer: 160 mg/kg/day

Question: And the TD50 (rat, strain Fischer 344, females, site: cecum + colon + kidney + liver + rectum + urinary bladder, lesion: polypoid adenoma + adenocarcinoma + tubule adenoma + tubule carcinoma + hepatocholangiocarcinoma + hepatocellular adenoma + hepatoce, dosed 103 weeks, study length 104 weeks)?
Answer: 31 mg/kg/day

Question: What about the TD50 (rat, strain Fischer 344, females, site: cecum + colon + rectum, lesion: polypoid adenoma, dosed 40 weeks, study length 66 weeks) of the same compound?
Answer: 217 mg/kg/day

Question: What about the TD50 (rat, strain Fischer 344, females, site: cecum + colon + rectum, lesion: polypoid adenoma, dosed 66 weeks, study length 66 weeks) of the same compound?
Answer: 1270 mg/kg/day

Question: What about the TD50 (rat, strain Fischer 344, females, site: cecum + colon + rectum, lesion: polypoid adenoma, dosed 103 weeks, study length 104 weeks) of the same compound?
Answer: 72.9 mg/kg/day

Question: And the TD50 (rat, strain Fischer 344, females, site: colon + rectum, lesion: adenocarcinoma, dosed 103 weeks, study length 104 weeks)?
Answer: 414 mg/kg/day

Question: And the TD50 (rat, strain Fischer 344, females, site: kidney, lesion: tubule adenoma + tubule carcinoma, dosed 40 weeks, study length 66 weeks)?
Answer: 418 mg/kg/day

Question: And the TD50 (rat, strain Fischer 344, females, site: kidney, lesion: tubule adenoma + tubule carcinoma, dosed 66 weeks, study length 66 weeks)?
Answer: 1520 mg/kg/day

Question: What about the TD50 (rat, strain Fischer 344, females, site: kidney, lesion: tubule adenoma + tubule carcinoma, dosed 103 weeks, study length 104 weeks) of the same compound?
Answer: 388 mg/kg/day

Question: What about the TD50 (rat, strain Fischer 344, females, site: kidney, lesion: tubule adenoma, dosed 40 weeks, study length 66 weeks) of the same compound?
Answer: 418 mg/kg/day

Question: And the TD50 (rat, strain Fischer 344, females, site: kidney, lesion: tubule adenoma, dosed 66 weeks, study length 66 weeks)?
Answer: 1520 mg/kg/day

Question: What about the TD50 (rat, strain Fischer 344, females, site: kidney, lesion: tubule adenoma, dosed 103 weeks, study length 104 weeks) of the same compound?
Answer: 388 mg/kg/day

Question: And the TD50 (rat, strain Fischer 344, females, site: liver, lesion: hepatocellular adenoma + hepatoblastoma + hepatocellular carcinoma, dosed 40 weeks, study length 66 weeks)?
Answer: 121 mg/kg/day

Question: And the TD50 (rat, strain Fischer 344, females, site: liver, lesion: hepatocellular adenoma + hepatoblastoma + hepatocellular carcinoma, dosed 66 weeks, study length 66 weeks)?
Answer: 121 mg/kg/day

Question: And the TD50 (rat, strain Fischer 344, females, site: liver, lesion: hepatocellular adenoma + hepatoblastoma + hepatocellular carcinoma, dosed 103 weeks, study length 104 weeks)?
Answer: 40.1 mg/kg/day

Question: And the TD50 (rat, strain Fischer 344, females, site: liver, lesion: hepatocellular adenoma + hepatocellular carcinoma, dosed 40 weeks, study length 66 weeks)?
Answer: 121 mg/kg/day

Question: What about the TD50 (rat, strain Fischer 344, females, site: liver, lesion: hepatocellular adenoma + hepatocellular carcinoma, dosed 66 weeks, study length 66 weeks) of the same compound?
Answer: 121 mg/kg/day

Question: What about the TD50 (rat, strain Fischer 344, females, site: liver, lesion: hepatocellular adenoma + hepatocellular carcinoma, dosed 103 weeks, study length 104 weeks) of the same compound?
Answer: 40.1 mg/kg/day

Question: And the TD50 (rat, strain Fischer 344, females, site: liver, lesion: hepatocellular adenoma, dosed 40 weeks, study length 66 weeks)?
Answer: 191 mg/kg/day

Question: What about the TD50 (rat, strain Fischer 344, females, site: liver, lesion: hepatocellular adenoma, dosed 66 weeks, study length 66 weeks) of the same compound?
Answer: 219 mg/kg/day

Question: What about the TD50 (rat, strain Fischer 344, females, site: liver, lesion: hepatocellular adenoma, dosed 103 weeks, study length 104 weeks) of the same compound?
Answer: 53.9 mg/kg/day

Question: And the TD50 (rat, strain Fischer 344, females, site: liver, lesion: hepatocellular carcinoma, dosed 40 weeks, study length 66 weeks)?
Answer: 167 mg/kg/day

Question: And the TD50 (rat, strain Fischer 344, females, site: liver, lesion: hepatocellular carcinoma, dosed 66 weeks, study length 66 weeks)?
Answer: 124 mg/kg/day

Question: And the TD50 (rat, strain Fischer 344, females, site: liver, lesion: hepatocellular carcinoma, dosed 103 weeks, study length 104 weeks)?
Answer: 88.4 mg/kg/day
